Results on 3 compounds are retold here after PMC10900488, “Synthesis and Evaluation of (Bis)benzyltetrahydroisoquinoline Alkaloids as Antiparasitic Agents” (JACS Au, 2024).

One assay concerns L. infantum amastigotes. Put plainly: Antiamastigote assay (L. infantum), ex vivo intracellular model of mice macrophages, microscopy. Type of assay: cell-based, Leishmania (L.) infantum. The conditions noted are these: Leishmania infantum, Peritoneal macrophage, 96 h, ± SD, intracellular, peritoneal macrophages, read-out: L. infantum IC50 amastigotes.
In a further assay the test system is T. cruzi trypomastigotes. As to the kind of experiment: Antitrypomastigote assay (T. cruzi), resazurin. The note with it: Trypanosoma cruzi, 24 h, ± SD, resazurin, read-out: T. cruzi IC50 trypomastigotes. Type of assay: cell-based, Trypanosoma (T.) cruzi. A general note: Alamar Blue is a resazurin reagent that responds to reducing activity.
Assay [1] relates to L. mexicana promastigotes. Put plainly: Light microscopy of cell morphology. It counts as cell-based, Leishmania (L.) mexicana. The protocol:
Preliminary investigations into the mechanism of action for compounds (S)-9a, (S)-9b and (S,R)-11 were carried out using L. mexicana promastigotes. Light microscopy-based techniques were employed to further explore compound activity in a different, related Leishmania species. […] A solvent-only control using 0.1% (v/v) DMSO led to no significant effects. Cell cultures were examined by light microscopy to identify any morphological changes resulting from compound treatment (Figure 2B). […] Cells treated with the BI and BBI compounds develop a changed morphology with a spherical cell body or shortened flagellum. This effect is observed in 25% of the population for compound (S)-9a, to a greater extent (66%) for (S)-9b, and 27% for compound (S,R)-11. An abnormal number and position of Ks and Ns were often observed, with Ks and Ns sometimes less well-defined by Hoechst 33342 staining. […]
If the radar plot falls completely within the pink area, the compounds is predicted to have good oral […]
Figure S1. Bioavailability radars for hit compounds as generated by the SwissADME Webtool.
General Experimental Considerations
MTT was obtained from Molecular Probes® (Invitrogen™). Foetal calf serum (FCS, 10500064), M199 medium (M199 containing Earle’s salts and L-glutamine, 31100019), were purchased from Gibco. Hemin (H9039) was obtained from Sigma Aldrich. The FilterMax F5 Multi-Mode Microplate Reader spectrofluorimeter (Molecular Devices) was used to obtain all absorbance readings.
Microscopy was performed with a widefield fluorescence microscope (Axio Observer A1, Zeiss) using a 63× NA 1.4 Plan-Apochromat oil immersion objective lens and a 120V metal halide fluorescence light source (Zeiss, HXP 120V) with a Hamamatsu ORCA-Flash4.0 camera. Standard fluorescence microscopy was performed with a Green (ThorLabs, MDF-GFP2) and/or Blue (Zeiss, 49) filter cube. […]

On to `COc1cc2c(cc1OC)[C@H](Cc1ccc(OC)c(OCc3ccccc3)c1)N(C)CC2` [(S)-9b], for which the IC50 (in general, the concentration that inhibits the measured activity by half) was found to be 26.7 ± 2 µM in the assay with L. infantum amastigotes and 57.7 ± 2.3 µM in the assay with T. cruzi trypomastigotes. Further, in assay [1] (50 μM), the “Abnormal morphology (spherical cell body or shortened flagellum), share of population” value (“Abnormal morphology” below) amounted to 66%.
`COc1cc2c(cc1OC)[C@@H](Cc1ccc(Oc3cc(C[C@H]4c5cc(OC)c(OC)cc5CCN4C)ccc3OC)cc1)N(C)CC2` [(S,R)-11, (−)-O,O′-dimethylgrisabine]: the IC50 in the assay on L. infantum amastigotes was > 150 µM; with T. cruzi trypomastigotes, 2.6 ± 2.9 µM. Moreover, the “Abnormal morphology” value in assay [1] (5 μM) is given as 27%.
For the compound `COc1cc2c(cc1OC)[C@H](Cc1ccc(Br)cc1)N(C)CC2` [(S)-9a], the IC50 with L. infantum amastigotes was 13.3 ± 0.9 µM; in the assay on T. cruzi trypomastigotes it was 14.4 ± 5.5 µM. Further, the “Abnormal morphology” value in assay [1] (50 μM) was 25%.
